Literature values in patent US20040033957A1, “FAP-activated anti-tumor prodrugs” (Boehringer Ingelheim Pharma GmbH & Co. KG, priority 2002, published 2004).
Where a SMILES comes first, the peptide text is derived from it. The star is where a group is joined. AFC = O=c1cc(C(F)(F)F)c2ccc(N*)cc2o1

Experiments:
[1] = biological target: T1, FAPα dimers (Homo sapiens, UniProt Q12884); details: membrane overlay assay
T1 sequence (Q12884 1-760): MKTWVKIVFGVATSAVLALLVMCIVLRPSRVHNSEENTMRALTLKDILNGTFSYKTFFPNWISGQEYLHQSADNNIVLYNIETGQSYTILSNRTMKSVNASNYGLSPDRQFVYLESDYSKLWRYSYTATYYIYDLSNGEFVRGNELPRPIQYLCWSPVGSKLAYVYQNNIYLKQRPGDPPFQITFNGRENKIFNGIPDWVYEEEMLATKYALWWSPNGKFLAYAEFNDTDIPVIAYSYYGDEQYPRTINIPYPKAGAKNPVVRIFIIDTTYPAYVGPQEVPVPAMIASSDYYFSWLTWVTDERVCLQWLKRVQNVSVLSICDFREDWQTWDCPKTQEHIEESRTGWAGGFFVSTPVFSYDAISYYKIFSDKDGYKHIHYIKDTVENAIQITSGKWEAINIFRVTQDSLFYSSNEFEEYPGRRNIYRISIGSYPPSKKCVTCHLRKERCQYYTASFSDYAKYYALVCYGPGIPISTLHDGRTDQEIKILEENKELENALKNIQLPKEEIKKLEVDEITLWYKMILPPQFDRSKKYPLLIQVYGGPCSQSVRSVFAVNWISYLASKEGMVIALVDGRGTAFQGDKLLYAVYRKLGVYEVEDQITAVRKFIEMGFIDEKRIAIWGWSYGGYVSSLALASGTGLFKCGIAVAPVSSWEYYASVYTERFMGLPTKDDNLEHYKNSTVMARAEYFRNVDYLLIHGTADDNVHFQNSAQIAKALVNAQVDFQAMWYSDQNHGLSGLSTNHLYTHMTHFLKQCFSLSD

[2] = system: xenograft tumor; details: mouse xenograft tumor models
[3] = directly in the circulation, humans

| SMILES | cleavage by FAPα dimers [1] | tolerability (humans) | myelosuppression (patients, correlated with AUC of released doxorubicin) | efficacy as compared to doxorubicin [2] | fraction of the prodrug metabolized to free doxorubicin [3] |
| --- | --- | --- | --- | --- | --- |
| C[C@H](N)C(=O)N1CCC[C@H]1C(=O)Nc1ccc2c(C(F)(F)F)cc(=O)oc2c1 [Ala-Pro-7-amino-4-trifluoromethyl coumarin] (H-Ala-Pro-{AFC}) | able to cleave | – | – | – | – |
| NCC(=O)N1CCC[C@H]1C(=O)Nc1ccc2c(C(F)(F)F)cc(=O)oc2c1 [Gly-Pro-7-amino-4-trifluoromethyl coumarin] (H-Gly-Pro-{AFC}) | able to cleave | – | – | – | – |
| NCCCC[C@H](N)C(=O)N1CCC[C@H]1C(=O)Nc1ccc2c(C(F)(F)F)cc(=O)oc2c1 [Lys-Pro-7-amino-4-trifluoromethyl coumarin] (H-Lys-Pro-{AFC}) | able to cleave | – | – | – | – |
| COc1cccc2c1C(=O)c1c(O)c3c(c(O)c1C2=O)C[C@@](O)(C(=O)CO)C[C@@H]3O[C@H]1C[C@H](NC(=O)[C@@H](N)CC(C)C)[C@H](O)[C@H](C)O1 [N-L-leucyl-doxorubicin] | – | comparably poor tolerability | Myelosuppression was seen | improved efficacy | roughly half |
